In assay [1] the target is T1, PRMT5/MEP50 complex (Homo sapiens, UniProt O14744).
T1 construct: purchased Reaction Biology Corporation
Nature of the assay: PRMT5:MEP50 HotSpot Assay (full-length histone H2A substrate, plus and minus MTA). It is filed as biochemical. The settings on record: IC50 + 2 μM MTA, in the presence of 2 μM MTA. Summed up: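 Tritiated product on full-length recombinant H2A was counted by scintillation after the stopped reaction was captured on filter paper. Substrate is histone H2A; conditions include plus and minus MTA.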

Assay [2] concerns HCT116 homozygous MTAP knockout cells. Nature of the assay: Proliferation assay (CellTiter-Glo, 10 days) in HCT116 homozygous MTAP knockout cells. Format: cell-based. The conditions noted are these: CellTiter-Glo after 10 days of treatment, read-out: Proliferation IC50 (nM) HCT116 MTAP_KO. Summed up:
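CellTiter-Glo viability read on day 11 gives a 10-day IC50. Dosing began one day after seeding, with a 1:10 split into fresh drug-containing medium on day 6. Cells are HCT116 lacking both MTAP alleles via CRISPR/Cas9, run alongside the parental line.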
Background: In ATP-based viability assays light output follows the ATP content of the culture.

The structures appear in SMILES notation. pIC50: −log10 of the molar value. Structures can show the parent of a compound that is named as a salt. Where two headings read alike, the source gives them in different places.

T1 sequence (O14744 2-637 limits assumed): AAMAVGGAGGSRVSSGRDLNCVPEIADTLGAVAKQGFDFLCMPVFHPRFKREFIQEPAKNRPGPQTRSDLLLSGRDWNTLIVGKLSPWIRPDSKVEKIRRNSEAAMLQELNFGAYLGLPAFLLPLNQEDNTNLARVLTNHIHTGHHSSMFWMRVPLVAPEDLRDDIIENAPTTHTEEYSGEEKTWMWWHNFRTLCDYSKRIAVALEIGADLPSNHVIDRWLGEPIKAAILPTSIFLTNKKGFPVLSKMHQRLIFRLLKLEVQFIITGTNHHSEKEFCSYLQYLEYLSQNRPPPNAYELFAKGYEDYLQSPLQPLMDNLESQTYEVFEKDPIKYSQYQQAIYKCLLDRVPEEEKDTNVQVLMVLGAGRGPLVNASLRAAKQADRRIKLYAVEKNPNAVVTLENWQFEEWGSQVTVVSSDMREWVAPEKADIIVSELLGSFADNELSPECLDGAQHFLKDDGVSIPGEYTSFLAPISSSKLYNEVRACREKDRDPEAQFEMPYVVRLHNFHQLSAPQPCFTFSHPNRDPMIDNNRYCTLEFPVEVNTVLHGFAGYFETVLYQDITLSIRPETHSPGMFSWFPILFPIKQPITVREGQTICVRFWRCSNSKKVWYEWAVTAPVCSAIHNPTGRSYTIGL
T1 sequence (Q9BQA1 2-342 partner limits assumed): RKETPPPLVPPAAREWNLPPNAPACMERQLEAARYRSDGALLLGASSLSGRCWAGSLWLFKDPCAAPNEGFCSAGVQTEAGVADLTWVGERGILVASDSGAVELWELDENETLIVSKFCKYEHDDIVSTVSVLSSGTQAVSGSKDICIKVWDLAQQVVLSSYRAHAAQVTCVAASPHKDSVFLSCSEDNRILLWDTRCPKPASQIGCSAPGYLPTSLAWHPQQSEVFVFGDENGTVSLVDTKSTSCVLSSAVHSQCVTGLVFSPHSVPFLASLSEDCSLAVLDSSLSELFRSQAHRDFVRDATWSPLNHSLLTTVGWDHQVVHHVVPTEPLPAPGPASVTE

On to `Cn1ncc(-c2ccc3c(=O)[nH]nc(C4CNC4)c3c2)c1-c1sc2ccccc2c1C#N` [Example 9-12, 2-[4-[4-(azetidin-3-yl)-1-oxo-2H-phthalazin-6-yl]-2-methyl-pyrazol-3-yl]benzothiophene-3-carbonitrile], for which, in assay [1], the pIC50 (usually −log10 of the IC50, conventionally taken in molar units) is 5.37. In assay [2] (Homo sapiens, HCT-116, 240 h), the IC50 came to 10000 nM.

In the case of `Cn1ncc(-c2ccc3c(=O)[nH]nc(C4(N)CCC4)c3c2)c1-c1sc2ccccc2c1C#N` [Example 9-10, 2-(4-(4-(1-aminocyclobutyl)-1-oxo-1,2-dihydrophthalazin-6-yl)-1-methyl-1H-pyrazol-5-yl) benzo[b]thiophene-3-carbonitrile], in assay [1], the pIC50 is less than 5.00. Moreover, the IC50 in assay [2] (Homo sapiens, HCT-116, 240 h) worked out at 10000 nM.

Consider `COc1cc(F)c(-c2c(-c3ccc4c(=O)[nH]nc(CN)c4c3)cnn2C)c(C#N)c1OC1CC1` (atropisomer, axis not shown; (M)) [Example 16-71, (M)-2-[4-[4-(aminomethyl)-1-oxo-2H-phthalazin-6-yl]-2-methyl-pyrazol-3-yl]-6-(cyclopropoxy)-3-fluoro-5-methoxy-benzonitrile], for which the pIC50 in assay [1] is 6.85. Moreover, the IC50 in assay [2] is 50 nM.

Regarding `Cn1ncc(-c2cc(Cl)c3c(=O)[nH]nc(CN)c3c2)c1-c1c(F)c(Cl)c2ccccc2c1C#N` (single isomer, unassigned) [Example 16-57, (P)-2-[4-[4-(aminomethyl)-8-chloro-1-oxo-2H-phthalazin-6-yl]-2-methyl-pyrazol-3-yl]-4-chloro-3-fluoro-naphthalene-1-carbonitrile], in assay [1], the pIC50 is 6.60. For the same molecule, the IC50 in assay [2] is 339 nM.

For `Cn1ncc(-c2cc(Cl)c3c(=O)[nH]nc(CN)c3c2)c1-c1c(F)c(Cl)cc(OC2CC2)c1C#N` (single isomer, unassigned) [Example 16-27, (P)-2-[4-[4-(aminomethyl)-8-chloro-1-oxo-2H-phthalazin-6-yl]-2-methyl-pyrazol-3-yl]-4-chloro-6-(cyclopropoxy)-3-fluoro-benzonitrile], the pIC50 in assay [1] was 5.65. Also, in assay [2], the IC50 is 321 nM.

Take `Cn1ncc(-c2ccc3c(=O)[nH]nc(CN)c3c2)c1-c1c(F)cc2c(c1C#N)OCCO2` (single isomer, unassigned) [Example 16-90, (M)-6-[4-[4-(aminomethyl)-1-oxo-2H-phthalazin-6-yl]-2-methyl-pyrazol-3-yl]-7-fluoro-2,3-dihydro-1,4-benzodioxine-5-carbonitrile]: the pIC50 in assay [1] was 6.61. Also, in assay [2], the IC50 came to 138 nM.

Take `Cn1ncc(-c2ccc3c(=O)[nH]nc(CN)c3c2)c1-c1sc2ncc(Cl)cc2c1C#N` [Example 4-263, 2-[4-[4-(aminomethyl)-1-oxo-2H-phthalazin-6-yl]-2-methyl-pyrazol-3-yl]-5-chloro-thieno[2,3-b]pyridine-3-carbonitrile]: the pIC50 in assay [1] was 6.92. In assay [2] (Homo sapiens, HCT-116, 240 h), the IC50 was 132 nM.

Consider `CCOc1cc(-c2cnn(C)c2-c2sc3ccccc3c2C#N)cc2c(CN)n[nH]c(=O)c12` [Example 10-24, 2-(4-(4-(aminomethyl)-8-ethoxy-1-oxo-1,2-dihydrophthalazin-6-yl)-1-methyl-1H-pyrazol-5-yl)benzo[b]thiophene-3-carbonitrile], for which, in assay [1], the pIC50 was 7.12. Further, in assay [2] (Homo sapiens, HCT-116, 240 h), the IC50 was 166 nM.

Take `Cc1cnc2cc(F)c(-c3c(-c4ccc5c(=O)[nH]nc(CN)c5c4)cnn3C)c(C#N)c2c1` (atropisomer, axis not shown; (M)) [Example 16-35, (M)-6-[4-[4-(aminomethyl)-1-oxo-2H-phthalazin-6-yl]-2-methyl-pyrazol-3-yl]-7-fluoro-3-methyl-quinoline-5-carbonitrile]: the pIC50 in assay [1] is 7.08. In addition, the IC50 in assay [2] (Homo sapiens, HCT-116, 240 h) worked out at 5 nM.

Turning to `COCc1cccc2c(C#N)c(-c3c(-c4ccc5c(=O)[nH]nc(CN)c5c4)cnn3C)sc12` [Example 12-20, 2-[4-[4-(aminomethyl)-1-oxo-2H-phthalazin-6-yl]-2-methyl-pyrazol-3-yl]-7-(methoxymethyl) benzothiophene-3-carbonitrile hydrochloride], in assay [1], the pIC50 is 6.74. The IC50 in assay [2] (Homo sapiens, HCT-116, 240 h) was 269 nM.

Take `Cn1ncc(-c2cc(Cl)c3c(=O)[nH]nc(CN)c3c2)c1-c1c(F)cc2ccccc2c1C#N` (single isomer, unassigned) [Example 16-11, (P)-2-(4-(4-(aminomethyl)-8-chloro-1-oxo-1,2-dihydrophthalazin-6-yl)-1-methyl-1H-pyrazol-5-yl)-3-fluoro-1-naphthonitrile]: the pIC50 in assay [1] was 6.99. Besides, in assay [2], the IC50 amounted to 5 nM.

As for `N#Cc1c(-c2c(-c3ccc4c(=O)[nH]nc(CN)c4c3)cnn2C(F)(F)F)sc2ccccc12` [Example 19-4, 2-(4-(4-(aminomethyl)-1-oxo-1,2-dihydrophthalazin-6-yl)-1-(trifluoromethyl)-1H-pyrazol-5-yl)benzo[b]thiophene-3-carbonitrile], the pIC50 in assay [1] is 6.19. Moreover, the IC50 in assay [2] (Homo sapiens, HCT-116, 240 h) worked out at 1030 nM.

Regarding `C[C@H]1C[C@@H]1Oc1ccc(F)c(-c2c(-c3ccc4c(=O)[nH]nc(CN)c4c3)cnn2C)c1C#N` (single isomer, unassigned) [Example 16-67], the pIC50 in assay [1] is 6.57. Also, in assay [2], the IC50 stood at 241 nM.

`CCOc1cc(-c2cnn(C)c2-c2c(F)c(C)c3cc(Cl)cnc3c2C#N)cc2c(CN)n[nH]c(=O)c12` (single isomer, unassigned) [Example 16-99, (P)-7-(4-(4-(aminomethyl)-8-ethoxy-1-oxo-1,2-dihydrophthalazin-6-yl)-1-methyl-1H-pyrazol-5-yl)-3-chloro-6-fluoro-5-methylquinoline-8-carbonitrile]: the pIC50 in assay [1] was 5.01. Also, the IC50 in assay [2] (Homo sapiens, HCT-116, 240 h) was determined as 10000 nM.

On to `Cn1ncc(-c2cc(Cl)c3c(=O)[nH]nc(CN)c3c2)c1-c1c(F)cc2ccccc2c1C#N` (single isomer, unassigned) [Example 16-12, (M)-(4-(4-(aminomethyl)-8-chloro-1-oxo-1,2-dihydrophthalazin-6-yl)-1-methyl-1H-pyrazol-5-yl)-3-fluoro-1-naphthonitrile], for which the pIC50 in assay [1] is 7.58. Moreover, the IC50 in assay [2] was determined as 12 nM.

Regarding `CCOc1cc(-c2cnn(C)c2-c2c(F)ccc(OC3CC3)c2C#N)cc2c(CN)n[nH]c(=O)c12` (atropisomer, axis not shown; (M)) [Example 16-74, (M)-2-[4-[4-(aminomethyl)-8-ethoxy-1-oxo-2H-phthalazin-6-yl]-2-methyl-pyrazol-3-yl]-6-(cyclopropoxy)-3-fluoro-benzonitrile], the pIC50 in assay [1] is 6.46. In addition, the IC50 in assay [2] was 158 nM.

Turning to `Cc1c(F)c(-c2c(-c3cc(Cl)c4c(=O)[nH]nc(CN)c4c3)cnn2C)c(C#N)c2ccccc12` (single isomer, unassigned) [Example 16-60, (M)-2-[4-[4-(aminomethyl)-8-chloro-1-oxo-2H-phthalazin-6-yl]-2-methyl-pyrazol-3-yl]-3-fluoro-4-methyl-naphthalene-1-carbonitrile], the pIC50 in assay [1] was 7.83. Besides, in assay [2], the IC50 came to 39 nM.

On to `Cn1ncc(-c2ccc3c(=O)[nH]nc(CN)c3c2)c1-c1ccc2n1C(=O)CC2` [Example 4-260, 4-(aminomethyl)-6-[1-methyl-5-(5-oxo-6,7-dihydropyrrolizin-3-yl)pyrazol-4-yl]-2H-phthalazin-1-one], for which the pIC50 in assay [1] was 6.24. For the same molecule, in assay [2] (Homo sapiens, HCT-116, 240 h), the IC50 was 2680 nM.

On to `Cn1ncc(-c2ccc3c(=O)[nH]nc(CN)c3c2)c1-c1c(C#N)cc2ncccc2c1F` (single isomer, unassigned) [Example 16-92, (M)-6-[4-[4-(aminomethyl)-1-oxo-2H-phthalazin-6-yl]-2-methyl-pyrazol-3-yl]-5-fluoro-quinoline-7-carbonitrile], for which the negative-log IC50 (pIC50) in assay [1] is 5.69. For the same molecule, the IC50 in assay [2] was 403 nM.

Turning to `Cc1cc(OC2CC2)c(C#N)c(-c2c(-c3cc(Cl)c4c(=O)[nH]nc(CN)c4c3)cnn2C)c1F` (single isomer, unassigned) [Example 16-26, (M)-2-[4-[4-(aminomethyl)-8-chloro-1-oxo-2H-phthalazin-6-yl]-2-methyl-pyrazol-3-yl]-6-(cyclopropoxy)-3-fluoro-4-methyl-benzonitrile], the pIC50 in assay [1] is 8.07. Moreover, the IC50 in assay [2] is 17 nM.

Turning to `CCOc1cc(-c2cnn(C)c2-c2c(F)c(C)cc(OC3CC3)c2C#N)cc2c(CN)n[nH]c(=O)c12` (single isomer, unassigned) [Example 16-75, (P)-2-[4-[4-(aminomethyl)-8-ethoxy-1-oxo-2H-phthalazin-6-yl]-2-methyl-pyrazol-3-yl]-6-(cyclopropoxy)-3-fluoro-4-methyl-benzonitrile], the pIC50 in assay [1] was 5.30. Further, in assay [2], the IC50 was found to be 420 nM.

Take `CCOc1cc(-c2cnn(C)c2-c2c(F)c(C)c3ccccc3c2C#N)cc2c(CN)n[nH]c(=O)c12` (single isomer, unassigned) [Example 16-81, (P)-2-[4-[4-(aminomethyl)-8-ethoxy-1-oxo-2H-phthalazin-6-yl]-2-methyl-pyrazol-3-yl]-3-fluoro-4-methyl-naphthalene-1-carbonitrile]: the pIC50 in assay [1] was 7.38. In assay [2] (Homo sapiens, HCT-116, 240 h), the IC50 is 9 nM.

Turning to `Cn1ncc(-c2ccc3c(=O)[nH]nc(CN)c3c2)c1-c1sc2cc(Cl)ccc2c1C#N` [Example 4-270, 2-(4-(4-(aminomethyl)-1-oxo-1,2-dihydrophthalazin-6-yl)-1-methyl-1H-pyrazol-5-yl)-6-chlorobenzo-[b]thiophene-3-carbonitrile], the pIC50 in assay [1] is 6.99. For the same molecule, the IC50 in assay [2] (Homo sapiens, HCT-116, 240 h) turned out to be 400 nM.

For `Cc1cc(OC2CC2)c(C#N)c(-c2c(-c3ccc4c(=O)[nH]nc(CN)c4c3)cnn2C)c1F` (single isomer, unassigned) [Example 16-20, (M)-2-[4-[4-(aminomethyl)-1-oxo-2H-phthalazin-6-yl]-2-methyl-pyrazol-3-yl]-6-(cyclopropoxy)-3-fluoro-4-methyl-benzonitrile], the pIC50 in assay [1] was 7.44. In assay [2], the IC50 is 13 nM.
